Drawing on patent publication US7846959B2, “Raf modulators and methods of use” (Exelixis, Inc., priority 2004, dated 2010), this text covers IC50 for 26 molecules.

In one experiment the target is c-Raf (Homo sapiens, UniProt P04049). Nature of the experiment: Luciferase-coupled chemiluminescence kinase assay (ATP consumption), c-Raf. The following applies: read-out: cRaf-1 IC50. Type of experiment: biochemical. In a few lines: (§1)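 Enzyme ([…]) was pre-incubated with compound for 30 min at room temperature in 20 mM Tris pH 7.5, 10 mM MgCl2, 0.03% TX-100, 1 mM DTT. ATP was added and the reaction ran 3 h at ambient temperature. Remaining ATP was read by luciferase-luciferin chemiluminescence, giving IC50 values.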

A further experiment deals with B-Raf (Homo sapiens, UniProt P15056). The experiment can be described thus: Luciferase-coupled chemiluminescence kinase assay (ATP consumption), B-Raf. Type of experiment: biochemical. The following applies: read-out: bRaf IC50. The method, boiled down: as §1

pIC50: −log10 of the molar value.

Sequence of c-Raf (P04049 whole entry): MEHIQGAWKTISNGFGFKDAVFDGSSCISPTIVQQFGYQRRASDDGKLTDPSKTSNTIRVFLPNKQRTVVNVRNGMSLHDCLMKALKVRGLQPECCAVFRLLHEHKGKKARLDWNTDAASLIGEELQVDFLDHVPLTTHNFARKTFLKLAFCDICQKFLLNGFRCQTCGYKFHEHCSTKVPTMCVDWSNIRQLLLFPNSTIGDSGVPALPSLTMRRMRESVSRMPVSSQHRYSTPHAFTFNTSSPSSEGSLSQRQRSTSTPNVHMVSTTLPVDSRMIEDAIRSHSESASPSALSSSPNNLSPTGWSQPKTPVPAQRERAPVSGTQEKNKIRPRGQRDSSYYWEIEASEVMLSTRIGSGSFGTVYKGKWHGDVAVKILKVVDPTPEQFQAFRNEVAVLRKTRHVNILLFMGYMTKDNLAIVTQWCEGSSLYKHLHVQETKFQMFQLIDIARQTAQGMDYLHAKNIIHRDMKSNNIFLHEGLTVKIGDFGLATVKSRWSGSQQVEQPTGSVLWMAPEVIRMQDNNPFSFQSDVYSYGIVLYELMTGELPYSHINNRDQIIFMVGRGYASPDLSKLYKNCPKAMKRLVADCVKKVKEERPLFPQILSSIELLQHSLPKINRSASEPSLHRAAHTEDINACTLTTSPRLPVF
Sequence of B-Raf (P15056 whole entry): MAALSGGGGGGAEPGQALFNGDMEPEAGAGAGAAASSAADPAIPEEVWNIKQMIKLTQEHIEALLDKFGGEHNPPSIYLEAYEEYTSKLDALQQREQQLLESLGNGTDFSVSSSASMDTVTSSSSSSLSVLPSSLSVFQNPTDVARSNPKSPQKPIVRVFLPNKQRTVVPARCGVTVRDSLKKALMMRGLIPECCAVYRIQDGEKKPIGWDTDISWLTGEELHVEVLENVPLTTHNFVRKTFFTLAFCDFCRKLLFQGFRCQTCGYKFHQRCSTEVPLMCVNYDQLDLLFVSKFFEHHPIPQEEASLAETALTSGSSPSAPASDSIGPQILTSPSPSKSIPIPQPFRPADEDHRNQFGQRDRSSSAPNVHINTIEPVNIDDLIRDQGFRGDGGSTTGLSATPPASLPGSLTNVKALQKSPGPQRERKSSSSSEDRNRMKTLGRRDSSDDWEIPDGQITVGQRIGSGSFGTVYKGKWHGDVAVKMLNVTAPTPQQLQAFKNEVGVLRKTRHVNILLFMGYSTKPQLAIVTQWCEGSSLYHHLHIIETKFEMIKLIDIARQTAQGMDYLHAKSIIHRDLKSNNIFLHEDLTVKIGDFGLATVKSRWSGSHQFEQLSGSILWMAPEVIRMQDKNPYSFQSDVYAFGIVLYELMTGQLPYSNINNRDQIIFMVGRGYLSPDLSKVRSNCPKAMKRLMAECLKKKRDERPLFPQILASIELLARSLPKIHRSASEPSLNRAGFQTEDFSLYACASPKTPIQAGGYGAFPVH

`COC(=O)Nc1nc2cc(C3(O)c4ccccc4C(=O)N3Cc3ccco3)ccc2[nH]1` (stereo not shown) [Entry 205, methyl {5-[2-(furan-2-ylmethyl)-1-hydroxy-3-oxo-2,3-dihydro-1H-isoindol-1-yl]-1H-benzimidazol-2-yl}carbamate]: the pIC50 at c-Raf and at B-Raf was over 7.00 each time.

In the case of `COC(=O)Nc1nc2cc(C3(O)c4ccccc4C(=O)N3Cc3ccsc3)ccc2[nH]1` (stereo not shown) [Entry 206, methyl {5-[1-hydroxy-3-oxo-2-(3-thienylmethyl)-2,3-dihydro-1H-isoindol-1-yl]-1H-benzimidazol-2-yl}carbamate], the pIC50 at c-Raf and on B-Raf was over 7.00 each time.

As for `COC(=O)Nc1nc2cc(C3(O)c4ccccc4C(=O)N3CC3CCC3)ccc2[nH]1` (stereo not shown) [Entry 207, methyl {5-[2-(cyclobutylmethyl)-1-hydroxy-3-oxo-2,3-dihydro-1H-isoindol-1-yl]-1H-benzimidazol-2-yl}carbamate], the pIC50 on c-Raf and at B-Raf was over 7.00 throughout.

On to `O=C1c2ccccc2C(O)(c2ccc3[nH]c(NC(=O)C(O)(C(F)(F)F)C(F)(F)F)nc3c2)N1Cc1ccccc1` (stereo not shown) [Entry 208, 3,3,3-trifluoro-2-hydroxy-N-{5-[1-hydroxy-3-oxo-2-(phenylmethyl)-2,3-dihydro-1H-isoindol-1-yl]-1H-benzimidazol-2-yl}-2-(trifluoromethyl)propanamide], for which the pIC50 on c-Raf and at B-Raf was 5.00 to 6.00 throughout.

On to `COC(=O)Nc1nc2cc(C3(O)c4ccccc4C(=O)N3C(C)c3cc(C)cs3)ccc2[nH]1` (stereo not shown) [Entry 209, methyl (5-{1-hydroxy-2-[1-(4-methyl-2-thienyl)ethyl]-3-oxo-2,3-dihydro-1H-isoindol-1-yl}-1H-benzimidazol-2-yl)carbamate], for which the pIC50 on c-Raf and at B-Raf was over 7.00 in each case.

Consider `COC(=O)Nc1nc2cc(C3(O)c4ccccc4C(=O)N3C(C)c3cc(Br)cs3)ccc2[nH]1` (stereo not shown) [Entry 210, methyl (5-{2-[1-(4-bromo-2-thienyl)ethyl]-1-hydroxy-3-oxo-2,3-dihydro-1H-isoindol-1-yl}-1H-benzimidazol-2-yl)carbamate], for which the pIC50 at c-Raf and at B-Raf was over 7.00 each time.

With `COCCOc1cccc(N2C(=O)c3ccccc3C2(O)c2ccc3[nH]c(NC(=O)OC)nc3c2)c1` (stereo not shown) [Entry 211, methyl {5-[1-hydroxy-2-(3-{[2-(methyloxy)ethyl]oxy}phenyl)-3-oxo-2,3-dihydro-1H-isoindol-1-yl]-1H-benzimidazol-2-yl}carbamate], the pIC50 at c-Raf and at B-Raf was 5.00 to 6.00 in each case.

As to `O=C(Nc1nc2cc(C3(O)c4ccccc4C(=O)N3Cc3ccccc3)ccc2[nH]1)OCC1CCOC1` (stereo not shown) [Entry 212, tetrahydrofuran-3-ylmethyl {5-[1-hydroxy-3-oxo-2-(phenylmethyl)-2,3-dihydro-1H-isoindol-1-yl]-1H-benzimidazol-2-yl}carbamate], the pIC50 on c-Raf and at B-Raf was over 7.00 throughout.

Take `O=C(Nc1nc2cc(C3(O)c4ccccc4C(=O)N3Cc3ccccc3)ccc2[nH]1)N1CCCCC1` (stereo not shown) [Entry 213, N-{5-[1-hydroxy-3-oxo-2-(phenylmethyl)-2,3-dihydro-1H-isoindol-1-yl]-1H-benzimidazol-2-yl}piperidine-1-carboxamide]: the results for the pIC50 at c-Raf and on B-Raf were 6.00 to 7.00 and 5.00 to 6.00, respectively.

As to `COC(=O)Nc1nc2cc(C3(O)c4ccccc4C(=O)N3c3ccc(F)c(Br)c3)ccc2[nH]1` (stereo not shown) [Entry 214, methyl {5-[2-(3-bromo-4-fluorophenyl)-1-hydroxy-3-oxo-2,3-dihydro-1H-isoindol-1-yl]-1H-benzimidazol-2-yl}carbamate], the pIC50 at c-Raf and at B-Raf was over 7.00 in each case.

With `O=C(Nc1nc2cc(C3(O)c4ccccc4C(=O)N3Cc3ccccc3)ccc2[nH]1)OCC(O)CO` (stereo not shown) [Entry 215, 2,3-dihydroxypropyl {5-[1-hydroxy-3-oxo-2-(phenylmethyl)-2,3-dihydro-1H-isoindol-1-yl]-1H-benzimidazol-2-yl}carbamate], the pIC50 on c-Raf and at B-Raf was over 7.00 each time.

For `COC(=O)Nc1nc2cc(C3(O)c4ccccc4C(=O)N3CC3CCCO3)ccc2[nH]1` (stereo not shown) [Entry 216, methyl {5-[1-hydroxy-3-oxo-2-(tetrahydrofuran-2-ylmethyl)-2,3-dihydro-1H-isoindol-1-yl]-1H-benzimidazol-2-yl}carbamate], the pIC50 on c-Raf and on B-Raf was 6.00 to 7.00 each time.

As for `COC(=O)Nc1nc2cc(C3(O)c4ccccc4C(=O)N3c3cccc(C(N)=O)c3)ccc2[nH]1` (stereo not shown) [Entry 217, methyl (5-{2-[3-(aminocarbonyl)phenyl]-1-hydroxy-3-oxo-2,3-dihydro-1H-isoindol-1-yl}-1H-benzimidazol-2-yl)carbamate], the pIC50 on c-Raf is 6.00 to 7.00; at B-Raf, over 7.00.

For the molecule `O=C(CC(O)(C(F)(F)F)C(F)(F)F)Nc1nc2cc(C3(O)c4ccccc4C(=O)N3Cc3ccccc3)ccc2[nH]1` (stereo not shown) [Entry 218, 4,4,4-trifluoro-3-hydroxy-N-{5-[1-hydroxy-3-oxo-2-(phenylmethyl)-2,3-dihydro-1H-isoindol-1-yl]-1H-benzimidazol-2-yl}-3-(trifluoromethyl)butanamide], the pIC50 at c-Raf and at B-Raf was 5.00 to 6.00 throughout.

As for `COC(=O)Nc1nc2cc(C3(O)c4ccccc4C(=O)N3c3cccc(S(C)(=O)=O)c3)ccc2[nH]1` (stereo not shown) [Entry 219, methyl (5-{1-hydroxy-2-[3-(methylsulfonyl)phenyl]-3-oxo-2,3-dihydro-1H-isoindol-1-yl}-1H-benzimidazol-2-yl)carbamate], the pIC50 at c-Raf and on B-Raf was 6.00 to 7.00 each time.

As for `COC(=O)Nc1nc2cc(C3(O)c4ccccc4C(=O)N3c3cccc(Oc4ccccc4)c3)ccc2[nH]1` (stereo not shown) [Entry 220, methyl (5-{1-hydroxy-3-oxo-2-[3-(phenyloxy)phenyl]-2,3-dihydro-1H-isoindol-1-yl}-1H-benzimidazol-2-yl)carbamate], the negative-log IC50 (pIC50) at c-Raf and on B-Raf was over 7.00 in each case.

As for `COC(=O)Nc1nc2cc(C3(O)c4ccccc4C(=O)N3c3cccc(OCc4ccccc4)c3)ccc2[nH]1` (stereo not shown) [Entry 221, methyl [5-(1-hydroxy-3-oxo-2-{3-[(phenylmethyl)oxy]phenyl}-2,3-dihydro-1H-isoindol-1-yl)-1H-benzimidazol-2-yl]carbamate], the pIC50 at c-Raf was over 7.00; on B-Raf it was 6.00 to 7.00.

Regarding `COC(=O)Nc1nc2cc(C3(O)c4ccccc4C(=O)N3c3cccc(-c4ccccc4)c3)ccc2[nH]1` (stereo not shown) [Entry 222, methyl [5-(2-biphenyl-3-yl-1-hydroxy-3-oxo-2,3-dihydro-1H-isoindol-1-yl)-1H-benzimidazol-2-yl]carbamate], the pIC50 at c-Raf and on B-Raf was 5.00 to 6.00 each time.

In the case of `CC(C)(COCc1ccccc1)COC(=O)Nc1nc2cc(C3(O)c4ccccc4C(=O)N3Cc3ccccc3)ccc2[nH]1` (stereo not shown) [Entry 223, 2,2-dimethyl-3-[(phenylmethyl)oxy]propyl {5-[1-hydroxy-3-oxo-2-(phenylmethyl)-2,3-dihydro-1H-isoindol-1-yl]-1H-benzimidazol-2-yl}carbamate], the pIC50 is over 7.00 at c-Raf and 6.00 to 7.00 at B-Raf.

In the case of `COC(=O)Nc1nc2cc(C3(O)c4ccccc4C(=O)N3c3cccc(Cl)c3F)ccc2[nH]1` (stereo not shown) [Entry 224, methyl {5-[2-(3-chloro-2-fluorophenyl)-1-hydroxy-3-oxo-2,3-dihydro-1H-isoindol-1-yl]-1H-benzimidazol-2-yl}carbamate], the pIC50 on c-Raf and on B-Raf was over 7.00 throughout.

With `COC(=O)Nc1nc2cc(C3(O)c4ccccc4C(=O)N3c3cccc(C#N)c3)ccc2[nH]1` (stereo not shown) [Entry 225, methyl {5-[2-(3-cyanophenyl)-1-hydroxy-3-oxo-2,3-dihydro-1H-isoindol-1-yl]-1H-benzimidazol-2-yl}carbamate], the pIC50 at c-Raf and on B-Raf was 6.00 to 7.00 throughout.

Turning to `C#Cc1cc(N2C(=O)c3ccccc3C2(O)c2ccc3[nH]c(NC(=O)OC)nc3c2)ccc1F` (stereo not shown) [Entry 226, methyl {5-[2-(3-ethynyl-4-fluorophenyl)-1-hydroxy-3-oxo-2,3-dihydro-1H-isoindol-1-yl]-1H-benzimidazol-2-yl}carbamate], the pIC50 at c-Raf and on B-Raf was over 7.00 each time.

Regarding `COC(=O)Nc1nc2cc(C3(O)c4ccccc4C(=O)N3c3ccc(F)c(C)c3)ccc2[nH]1` (stereo not shown) [Entry 227, methyl {5-[2-(4-fluoro-3-methylphenyl)-1-hydroxy-3-oxo-2,3-dihydro-1H-isoindol-1-yl]-1H-benzimidazol-2-yl}carbamate], the pIC50 on c-Raf and on B-Raf was over 7.00 throughout.

Consider `COC(=O)Nc1nc2ccc(C3(O)c4ccccc4C(=O)N3c3ccc(Cl)c(Cl)c3F)cc2[nH]1` (stereo not shown) [Entry 228, methyl {6-[2-(3,4-dichloro-2-fluorophenyl)-1-hydroxy-3-oxo-2,3-dihydro-1H-isoindol-1-yl]-1H-benzimidazol-2-yl}carbamate], for which the pIC50 at c-Raf and at B-Raf was over 7.00 throughout.

With `CC1(C)OC[C@@H](COC(=O)Nc2nc3cc(C4(O)c5ccccc5C(=O)N4Cc4ccccc4)ccc3[nH]2)O1` (stereo partly drawn) [Entry 229, [(4S)-2,2-dimethyl-1,3-dioxolan-4-yl]methyl {5-[1-hydroxy-3-oxo-2-(phenylmethyl)-2,3-dihydro-1H-isoindol-1-yl]-1H-benzimidazol-2-yl}carbamate], the pIC50 at c-Raf and on B-Raf was over 7.00 in each case.

With `COC(=O)Nc1nc2cc(C3(O)c4ccccc4C(=O)N3c3cc(Br)ccc3F)ccc2[nH]1` (stereo not shown) [Entry 230, methyl {5-[2-(5-bromo-2-fluorophenyl)-1-hydroxy-3-oxo-2,3-dihydro-1H-isoindol-1-yl]-1H-benzimidazol-2-yl}carbamate], the pIC50 at c-Raf and at B-Raf was over 7.00 in each case.
